# Measurements as given in ChEMBL document CHEMBL1201862, “PubChem BioAssay data set” (2004).
# Where “and” joins values, the source holds several entries; their conditions need not be identical. Identical values can stand only once. Calls of active or inactive are those of the source.
# Legend:
# [1] = Luminescence Cell-Based Dose Response HTS to Identify Activators of Luciferase Translation or Activity in H4 […] Cells. [Related pubchem assays: 1829 (Project Summary), 1814 (Primary HTS)]; assay type: functional
# [2] = test system: H4; experiment: Luminescence Cell-Based Dose Response HTS to Identify Activators of 5'UTR Stem-Loop Driven Prion Protein mRNA Translation in H4 Neuroglioblastoma Cells. [Related pubchem assays: 1829 (Project Summary), 1814 (Primary HTS)]; assay type: functional; settings: Homo sapiens
# [3] = biological target: T1, Polyadenylate-binding protein 1 (Homo sapiens, UniProt P11940); experiment: PABP1 MLLE–PAM2 interaction inhibitors, dose response, miRNA deadenylation inhibitor project, biochemical, fluorescence polarization, Cy5-PAM2 peptide, secondary (AID 602260); assay type: functional; settings: read-out: IC50_Mean
# [4] = biological target: T1, Polyadenylate-binding protein 1; experiment: PABP1 MLLE–PAM2 binding inhibitor potency, dose response, biochemical, fluorescence polarization, FITC-PAM2 peptide (AID 602259); assay type: functional; settings: read-out: IC50_Mean
# [5] = test system: INS1; experiment: beta cell apoptosis inhibitors, cytokine rescue, dose response, luminescence, retest (AID 449756); assay type: functional, cell-based; settings: Rattus norvegicus;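 further: cell death triggered by IL-1 beta plus TNF-alpha plus IFN-gamma mixture; protective hits raise ATP signal compared with cytokine alone wells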
# [6] = NIH-3T3 fibroblast cytotoxicity, dose response, cytotoxicity control, cell-based, fluorescence, Alamar Blue, secondary assay (AID 2327); assay type: functional;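 further: NIH-3T3 mouse fibroblasts cultured with fluconazole at 8 µg/mL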
# [7] = C. albicans growth with fluconazole, confirmation, fluorescence, retest (AID 2467); assay type: functional, cell-based
# [8] = test system: H9c2; experiment: cells; assay type: functional, cell-based; settings: Rattus norvegicus, H9c2, Myocardium;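 further: confirmatory concentration-response retest of ultra-high-throughput screening hits for modulation of myocardial damage; cell death induced by hydrogen peroxide oxidative stress; compound pretreatment for 60 min then peroxide exposure for 2 h; potency is for protecting the cells against peroxide damage rather than for killing them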
# [9] = biological target: Cytochrome P450 2D6 (Homo sapiens, UniProt P10635);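 further: CYP2D6 member of a cytochrome P450 panel assay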
# [10] = biological target: Cytochrome P450 2C9 (Homo sapiens, UniProt P11712)
# [11] = P. falciparum Dd2 growth inhibitors, dose response, SYBR Green, cherry-picked samples (AID 1159567); assay type: functional, cell-based
# [12] = biological target: T2, Heat shock factor protein 1 (Mus musculus, UniProt P38532); experiment: inhibition of MG132-induced HSE-luciferase signal, confirmation, cell-based, NIH3T3, luminescence, dose retest (AID 2382); assay type: functional;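 further: NIH3T3 fibroblasts with HSF1-driven luciferase reporter stressed by proteasome inhibitor MG132; luminescence from HSF1-driven luciferase expression after 8 hours of MG132 stress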
# T2 sequence (P38532 whole entry): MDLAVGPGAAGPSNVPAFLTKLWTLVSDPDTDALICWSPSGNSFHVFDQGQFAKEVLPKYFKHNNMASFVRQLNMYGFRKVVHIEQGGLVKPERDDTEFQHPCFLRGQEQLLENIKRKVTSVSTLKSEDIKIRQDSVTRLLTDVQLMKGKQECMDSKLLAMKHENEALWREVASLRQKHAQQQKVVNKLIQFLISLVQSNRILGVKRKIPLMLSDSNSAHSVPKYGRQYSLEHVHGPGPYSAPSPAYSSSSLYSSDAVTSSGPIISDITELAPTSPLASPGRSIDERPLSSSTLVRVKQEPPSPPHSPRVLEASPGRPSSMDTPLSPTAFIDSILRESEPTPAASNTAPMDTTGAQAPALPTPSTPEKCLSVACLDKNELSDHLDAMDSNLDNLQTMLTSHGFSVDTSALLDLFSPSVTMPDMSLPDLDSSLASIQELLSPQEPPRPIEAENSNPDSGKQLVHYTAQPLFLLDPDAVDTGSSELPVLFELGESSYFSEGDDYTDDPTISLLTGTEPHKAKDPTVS
# [13] = inhibitors of intracellular T. cruzi replication, confirmation, NIH3T3 host cells, beta-gal luminescence (AID 2044); assay type: functional, cell-based;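 further: intracellular parasites grown in NIH/3T3 mouse fibroblasts as host cells; luminescent beta-galactosidase reporter signal from transgenic T. cruzi replicating inside host cells; inhibitors lower the luminescence signal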
# [14] = cytotoxicity toward NIH3T3 fibroblasts, dose response, counter-screen, cell-based, ATP luminescence, mouse fibroblasts (AID 2010); assay type: functional;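 further: cells exposed to compound for about 90 hours before reading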
# [15] = test system: Streptococcus sp. 'group A'; experiment: growth inhibition of control SK(-) GAS strain, dose response, counter-screen for streptokinase expression inhibitor project, luminescence, kanamycin, BacTiterGlo, confirmation (AID 1900); assay type: functional, organism-based
# [16] = biological target: T3, Streptokinase A (Streptococcus pyogenes serotype M1, UniProt P10520); experiment: S. pyogenes streptokinase expression inhibitors, potency, dose response, plasminogen activation absorbance, OD405 (AID 1914); assay type: functional, Streptococcus pyogenes M1 GAS;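 further: secreted streptokinase activity via plasminogen activation per viability signal from cell pellet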
# T3 sequence (P10520 whole entry): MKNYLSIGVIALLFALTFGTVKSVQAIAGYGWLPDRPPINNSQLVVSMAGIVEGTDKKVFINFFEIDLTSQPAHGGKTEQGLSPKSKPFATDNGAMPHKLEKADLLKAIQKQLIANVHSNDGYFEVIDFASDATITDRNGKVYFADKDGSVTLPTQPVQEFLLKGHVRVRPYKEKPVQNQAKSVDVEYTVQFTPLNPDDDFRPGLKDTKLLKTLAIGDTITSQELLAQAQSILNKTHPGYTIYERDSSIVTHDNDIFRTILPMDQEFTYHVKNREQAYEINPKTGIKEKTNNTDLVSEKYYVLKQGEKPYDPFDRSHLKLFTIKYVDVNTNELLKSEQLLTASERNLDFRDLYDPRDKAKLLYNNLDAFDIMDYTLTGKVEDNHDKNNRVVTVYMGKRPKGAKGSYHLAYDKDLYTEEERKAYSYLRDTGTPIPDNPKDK
# [17] = test system: Streptococcus; experiment: Group A Streptococcus viability loss, dose response, counter-screen for streptokinase expression inhibitor project, luminescence, BacTiterGlo (AID 1915); assay type: functional, organism-based;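 further: potency for reduction of bacterial viability or growth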
# [18] = biological target: Cytochrome P450 2C19 (Homo sapiens, UniProt P33261); experiment: Cytochrome panel assay with activity outcomes. Panel member name: p450-cyp2c19 Compounds with AC50 equal or less than 10 uM are considered active; assay type: functional; settings: read-out: AC50
# [19] = biological target: Cytochrome P450 3A4 (Homo sapiens, UniProt P08684);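 further: CYP3A4 tested as one member of a cytochrome P450 panel screen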
# [20] = biological target: T4, Cytochrome P450 1A2 (Homo sapiens, UniProt P05177);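 further: PubChem cytochrome P450 panel assay, CYP1A2 panel member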
# T4 sequence (P05177 whole entry): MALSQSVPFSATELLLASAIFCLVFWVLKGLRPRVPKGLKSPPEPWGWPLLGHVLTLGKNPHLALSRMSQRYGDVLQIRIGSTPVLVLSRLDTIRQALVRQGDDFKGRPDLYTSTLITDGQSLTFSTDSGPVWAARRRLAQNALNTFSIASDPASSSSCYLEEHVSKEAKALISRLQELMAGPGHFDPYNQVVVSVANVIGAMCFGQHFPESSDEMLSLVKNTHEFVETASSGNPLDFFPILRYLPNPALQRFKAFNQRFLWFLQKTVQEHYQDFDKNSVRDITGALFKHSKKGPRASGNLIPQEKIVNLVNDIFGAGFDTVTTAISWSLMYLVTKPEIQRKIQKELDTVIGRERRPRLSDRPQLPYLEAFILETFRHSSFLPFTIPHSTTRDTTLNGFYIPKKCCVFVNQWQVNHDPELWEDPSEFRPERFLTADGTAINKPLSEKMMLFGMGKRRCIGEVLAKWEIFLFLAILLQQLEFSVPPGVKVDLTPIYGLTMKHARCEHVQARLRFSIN
# [21] = inhibitors of firefly luciferase expression or activity, dose response, H4 neuroglioma cells, luminescence (AID 1990); assay type: functional, cell-based
# [22] = Luminescence Cell-Based Dose Response HTS to Identify Inhibitors of 5'UTR Stem-Loop Driven Prion Protein mRNA Translation in H4 Neuroglioblastoma Cells. [Related pubchem assays: 1827 (Project Summary), 1813 (Primary HTS)]; assay type: functional
# [23] = inhibitors of SNCA 5'UTR-driven reporter translation, confirmation, H4 neuroglioma cells, luminescence (AID 1988); assay type: functional, cell-based
# T1 sequence (P11940 whole entry): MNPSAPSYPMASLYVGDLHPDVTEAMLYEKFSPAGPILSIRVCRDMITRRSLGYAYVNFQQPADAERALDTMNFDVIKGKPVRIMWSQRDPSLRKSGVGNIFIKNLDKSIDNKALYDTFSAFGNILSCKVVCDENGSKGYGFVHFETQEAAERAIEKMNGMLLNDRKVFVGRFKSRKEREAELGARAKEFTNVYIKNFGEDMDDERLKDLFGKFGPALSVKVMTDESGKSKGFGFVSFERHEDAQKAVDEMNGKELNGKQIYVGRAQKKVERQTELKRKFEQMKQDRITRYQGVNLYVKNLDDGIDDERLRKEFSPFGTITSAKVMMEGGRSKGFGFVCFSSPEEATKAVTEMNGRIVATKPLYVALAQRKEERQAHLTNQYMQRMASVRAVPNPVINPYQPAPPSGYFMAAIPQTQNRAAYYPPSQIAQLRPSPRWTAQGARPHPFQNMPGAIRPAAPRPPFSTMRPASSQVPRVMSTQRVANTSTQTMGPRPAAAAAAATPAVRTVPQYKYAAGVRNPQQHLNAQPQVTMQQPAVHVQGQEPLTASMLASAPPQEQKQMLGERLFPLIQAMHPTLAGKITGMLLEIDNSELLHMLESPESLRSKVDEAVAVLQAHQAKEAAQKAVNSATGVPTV
# Cytochrome P450 2D6, sequence (P10635 whole entry): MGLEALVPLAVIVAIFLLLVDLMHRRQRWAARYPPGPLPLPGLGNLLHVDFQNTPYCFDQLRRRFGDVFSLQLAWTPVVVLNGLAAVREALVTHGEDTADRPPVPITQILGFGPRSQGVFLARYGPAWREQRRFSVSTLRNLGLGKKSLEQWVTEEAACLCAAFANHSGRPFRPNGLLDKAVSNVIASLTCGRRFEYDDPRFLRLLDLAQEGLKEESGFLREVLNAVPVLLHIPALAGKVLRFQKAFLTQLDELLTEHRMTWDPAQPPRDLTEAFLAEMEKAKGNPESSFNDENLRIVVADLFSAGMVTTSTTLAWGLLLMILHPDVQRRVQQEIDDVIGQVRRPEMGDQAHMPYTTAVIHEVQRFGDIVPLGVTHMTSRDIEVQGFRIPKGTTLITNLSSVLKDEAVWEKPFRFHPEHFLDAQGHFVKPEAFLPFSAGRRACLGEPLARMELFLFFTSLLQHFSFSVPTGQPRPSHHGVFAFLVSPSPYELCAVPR
# Cytochrome P450 2C9, sequence (P11712 whole entry): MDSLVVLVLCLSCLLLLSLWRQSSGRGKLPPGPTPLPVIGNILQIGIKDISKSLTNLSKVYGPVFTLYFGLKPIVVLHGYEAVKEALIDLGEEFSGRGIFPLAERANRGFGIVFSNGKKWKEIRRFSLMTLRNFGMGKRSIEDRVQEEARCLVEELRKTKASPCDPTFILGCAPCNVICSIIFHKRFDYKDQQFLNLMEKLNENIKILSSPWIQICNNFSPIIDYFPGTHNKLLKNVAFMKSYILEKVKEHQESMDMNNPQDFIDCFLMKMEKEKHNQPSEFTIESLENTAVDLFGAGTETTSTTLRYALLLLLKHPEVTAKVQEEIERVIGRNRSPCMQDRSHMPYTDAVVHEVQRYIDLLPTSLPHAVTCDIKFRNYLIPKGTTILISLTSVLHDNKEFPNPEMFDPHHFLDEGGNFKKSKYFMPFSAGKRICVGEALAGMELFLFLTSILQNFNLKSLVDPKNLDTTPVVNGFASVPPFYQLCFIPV
# Cytochrome P450 2C19, sequence (P33261 whole entry): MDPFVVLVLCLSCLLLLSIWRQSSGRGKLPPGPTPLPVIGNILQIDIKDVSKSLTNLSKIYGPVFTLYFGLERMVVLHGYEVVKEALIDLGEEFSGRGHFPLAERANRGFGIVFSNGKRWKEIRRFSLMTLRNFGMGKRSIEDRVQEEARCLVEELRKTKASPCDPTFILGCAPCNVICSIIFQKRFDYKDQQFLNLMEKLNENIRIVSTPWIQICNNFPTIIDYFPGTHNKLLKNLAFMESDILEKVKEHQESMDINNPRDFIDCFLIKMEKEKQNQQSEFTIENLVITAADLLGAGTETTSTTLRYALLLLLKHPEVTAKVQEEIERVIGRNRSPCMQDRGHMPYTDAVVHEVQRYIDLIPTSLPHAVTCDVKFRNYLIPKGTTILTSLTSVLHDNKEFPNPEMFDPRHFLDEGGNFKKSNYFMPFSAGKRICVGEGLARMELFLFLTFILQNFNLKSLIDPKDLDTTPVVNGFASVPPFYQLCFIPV
# Cytochrome P450 3A4, sequence (P08684 whole entry): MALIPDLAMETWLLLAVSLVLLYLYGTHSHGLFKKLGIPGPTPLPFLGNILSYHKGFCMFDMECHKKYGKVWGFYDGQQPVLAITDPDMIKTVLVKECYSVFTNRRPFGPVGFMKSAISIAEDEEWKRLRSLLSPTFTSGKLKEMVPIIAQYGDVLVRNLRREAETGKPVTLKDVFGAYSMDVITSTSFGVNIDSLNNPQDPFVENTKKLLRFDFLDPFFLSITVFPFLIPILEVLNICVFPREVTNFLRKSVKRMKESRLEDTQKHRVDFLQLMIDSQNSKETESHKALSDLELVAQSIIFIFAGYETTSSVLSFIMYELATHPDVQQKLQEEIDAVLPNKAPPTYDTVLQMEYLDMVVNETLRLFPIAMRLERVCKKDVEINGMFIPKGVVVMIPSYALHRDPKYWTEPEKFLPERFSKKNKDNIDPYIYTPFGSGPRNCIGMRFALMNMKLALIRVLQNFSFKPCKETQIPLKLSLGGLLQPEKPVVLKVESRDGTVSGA
smiles,measurement,setting,value
COc1ccc(-c2cc(C(=O)N3CCN(c4ccccn4)CC3)c3ccccc3n2)cc1,EC50,[1],> 120 µM (not active)
same,EC50,[2],7.36 µM (active)
S=C(Nc1ccc(Br)cc1Cl)Nn1cnnc1,IC50,[3],> 66 µM (inactive)
same,IC50,[4],> 66 µM (inactive)
O=C(CSc1nnc(-c2cccnc2)o1)Nc1ccccc1F,IC50,[3],> 66 µM (inactive)
same,IC50,[4],> 66 µM (inactive)
Cc1nc(NCCc2ccc(S(N)(=O)=O)cc2)c2c(C)c(C)sc2n1,AC50,[5],5.52 µM (active)
O=C1/C(=C/c2cccnc2)SC(=S)N1c1ccc(F)cc1,IC50,[3],> 66 µM (inactive)
same,IC50,[4],> 66 µM (inactive)
NNC(=O)c1cc(-c2cccs2)nc2ccccc12,EC50,[6],> 150 µM (inactive)
same,EC50,[7],> 38 µM (not active)
O=C1c2ccccc2NC(c2ccc(Cl)cc2Cl)N1O (centres undefined),IC50,[8],> 79 µM (inactive)
same,AC50,[9],14.1 µM (inconclusive)
same,AC50,[10],25.1 µM (inconclusive)
CC(=O)c1c(C)cc(C)c(CSc2nc(C)cc(=O)[nH]2)c1C,IC50,[3],> 66 µM (inactive)
same,IC50,[4],> 66 µM (inactive)
C[C@H](CO)N1C[C@H](C)[C@H](CN(C)C(=O)NC2CCCCC2)OCc2ccccc2-c2c(n(C)c3ccccc23)C1=O,AC50,[11],5.57 µM (active)
CCOC(=O)C1=C(O)C(=O)N(Cc2ccccc2)C1,AC50,[9],31.6 µM (inconclusive)
O=C(CNC(=O)C1CCCCC1)NC1=NCCS1,EC50,[12],> 195 µM (not active)
same,IC50,[3],> 66 µM (inactive)
same,IC50,[4],> 66 µM (inactive)
Cc1nnsc1-c1onc(C)c1C(=O)Nc1cc(Cl)cc(Cl)c1,AC50,[5],12.8 µM (active)
Oc1c(Cl)c(Cl)c(Cl)c(Cl)c1Cl [PENTACHLOROPHENOL],EC50,[6],75.3 µM (inconclusive)
same,EC50,[7],0.657 µM (active)
N#Cc1c(N2CCCCC2)nc(N2CCCCC2)c2c1CCN(Cc1ccccc1)C2,EC50,[13],0.505 µM (active)
same,EC50,[14],> 30 µM (not active)
same,AC50,[5],12.7 µM (active)
COc1cc(C(=S)N2CCOCC2)cc(OC)c1OS(=O)(=O)c1ccc(C)cc1,IC50,[3],> 66 µM (inactive)
same,IC50,[4],> 66 µM (inactive)
CCN(CC)c1ccc(/C=N/NC(=S)NCc2ccccc2)c(O)c1,EC50,[15],49.2 µM (active)
same,EC50,[16],> 150 µM (not active)
same,EC50,[17],> 150 µM (not active)
same,AC50,[5],0.712 µM (active)
C(=N\N(c1ccccc1)c1ccccc1)/c1ccc2c(c1)OCO2,AC50,[18],2.51 µM (inconclusive)
same,AC50,[9],10 µM (inconclusive)
same,AC50,[19],15.8 µM (inconclusive)
same,AC50,[10],8.91 µM (inconclusive)
CC(=O)Nc1cccc(NC(=O)Nc2cccc(F)c2)c1,EC50,[6],> 150 µM (inactive)
same,EC50,[7],3.22 µM (active)
CCCCC#Cc1nc(NC)c2ncn([C@@H]3O[C@@H](CO)[C@H](O)[C@H]3O)c2n1,AC50,[18],3.16 µM (inconclusive)
same,AC50,[9],31.6 µM (inconclusive)
same,AC50,[20],31.6 µM (inconclusive)
CCS(=O)(=O)N1CCCCN2[C@H](CO)[C@H](c3ccc(-c4cccc(C#N)c4)cc3)[C@H]2C1,AC50,[11],7.45 µM (active)
Cc1ccsc1C(=O)OCC(=O)Nc1sccc1C(N)=O,EC50,[6],> 150 µM (inactive)
same,EC50,[7],5.44 µM (active)
OCCN1CCN(CC/C=C2\c3ccccc3Sc3ccc(C(F)(F)F)cc32)CC1 [E-FLUPENTIXOL],AC50,[9],6.31 µM (inconclusive) and 31.6 µM (inconclusive)
O=C(NCc1cccnc1)C(=O)Nc1nc(C23CC4CC(CC(C4)C2)C3)cs1,AC50,[5],35.3 µM (active)
COc1ccc(CONS(=O)(=O)c2ccc(NC(C)=O)cc2)cc1Cl,AC50,[9],3.55 µM (inconclusive)
O=C(/C=C\c1ccc(O)c(O)c1)OCCc1ccccc1,AC50,[9],39.8 µM (inconclusive)
same,AC50,[10],39.8 µM (inconclusive)
COc1cc(C2c3sc(O)nc3SC3C(=O)N(c4ccc(Br)cc4)C(=O)C32)ccc1O (centres undefined),IC50,[3],> 66 µM (inactive)
same,IC50,[4],> 66 µM (inactive)
COc1c2c(c3c(c1OC)c(=O)c1ccccc1n3C)OCO2,IC50,[3],> 66 µM (inactive)
same,IC50,[4],41.7 µM (inactive)
O=C(N/N=C/c1cnc(N2CCCCC2)s1)c1ccc(C(F)(F)F)cc1,EC50,[21],12 µM (active)
same,EC50,[22],> 120 µM (not active)
same,EC50,[23],9.6 µM (active)
same,AC50,[5],4.54 µM (active)
Cc1ccc(NC(=O)c2cc(S(=O)(=O)NCCC3=CCCCC3)ccc2F)cc1,AC50,[5],2.96 µM (active)
COc1cccc(CNC(=O)c2cc3c(c(-c4cccc(-c5ccncc5)c4)n2)[C@H](CCO)N([S@@+]([O-])C(C)(C)C)C3)c1,AC50,[11],4.29 µM (active)
CCOC(=O)c1s/c(=N\C(=O)c2ccco2)n(C)c1C,EC50,[6],> 150 µM (inactive)
same,EC50,[7],9.57 µM (active)
COC(=O)C1=C(C)OC(N)=C(C#N)C1C1CCCCC1 (centres undefined),AC50,[9],31.6 µM (inconclusive)
same,AC50,[20],15.8 µM (inconclusive)
